This test deals with Lactobacillus delbrueckii subsp. bulgaricus. In words: Ampicillin growth reduction (OD600) in MRS broth. The format is cell-based. The conditions noted are these: at least 20 hours at 37° C., stated as typical. The protocol:
In order to isolate ampicillin resistant mutants of the Lactobacillus delbrueckii subsp. bulgaricus strain CHCC13995, cells derived from the growth of a single colony were inoculated anaerobically into 10 ml MRS broth containing one of the following amounts of ampicillin, 0 ng/ml, 100 ng/ml, 200 ng/ml, 300 ng/ml, 400 ng/ml, 500 ng/ml, 600 ng/ml or 700 ng/ml, and grown for at least 20 hours at 37° C. After the 20 hours of growth OD600 is measured for all samples. Typically the concentration of ampicillin that reduces the OD600 measured anaerobic growth of Lactobacillus delbrueckii subsp. bulgaricus with at least 20% as compared to the growth in MRS medium without ampicillin (i.e. with 0 ng/ml ampicillin) is higher than 300 ng/ml. Cultures where the concentration of ampicillin was 500 ng/ml were diluted and plated on MRS agar plates with no ampicillin added and then incubated anaerobically for at least 20 hours at 37° C. Colonies were then picked and screened for anaerobic growth at 37° C. in microtiter plates in the presence of 500 ng/ml ampicillin. Typically, 25% of the resulting colonies were identified as fast growers in the presence of ampicillin. These were chosen for further study. The selected ampicillin resistant mutants were further purified and tested for their ability to grow in milk. […]

Consider `CC1(C)S[C@@H]2[C@H](NC(=O)[C@H](N)c3ccccc3)C(=O)N2[C@H]1C(=O)O` [ampicillin], for which the “concentration of ampicillin that reduces the OD600 measured anaerobic growth with at least 20% as compared to the growth in MRS medium without ampicillin” value was “higher than 300 ng/ml”.

The record behind these values is US10716313B2, “Ampicillin resistant texturizing lactic acid bacteria strains” (Chr. Hansen A/S, priority 2012, dated 2020).
